Results published in patent US11492386B2, “Parathyroid hormone-anti-RANKL antibody fusion compounds” (Eli Lilly and Company, priority 2016, dated 2022).

System: orchidectomized murine model
Assay: In vivo efficacy (BMD and BMC by qCT) in orchidectomized murine model
Design: species or system mice
Details: 5 μg/kg daily sc, two weeks
Protocol: Effects on bone mass density and bone mineral content, in vivo, are assessed using an orchidectomized murine model. Sixteen week old […] C57/B6 mice (Harlan, Indianapolis, Ind.) are orchidectomized (or vehicle control group, n=6) and maintained on a 12 hour light/dark cycle at 22° C. with ad lib access to food (TD 2014 with 0.72% Ca and 0.61% P, Vit. D 0.99 IU/g, Teklad, Madison, Wis.) and water. Osteopenia is established in the orchidectomized mice by allowing mice to lose bone mass for a six-week period.
Following a six-week osteopenia-establishing period, mice are divided into treatment groups and a vehicle PBS control group. […]
Bone mass density (BMD) of distal femur and bone mineral content (BMC) of lumbar vertebra are assessed by quantitative computed tomography (qCT) using Aloka LaTheta LTC-100 model CT scanner. […]

CC[C@H](C)[C@H](NC(=O)[C@H](CCC(=O)O)NC(=O)[C@H](CO)NC(=O)[C@@H](NC(=O)[C@@H](N)CO)C(C)C)C(=O)N[C@@H](CCC(N)=O)C(=O)N[C@@H](CC(C)C)C(=O)N[C@@H](CCSC)C(=O)N[C@@H](Cc1c[nH]cn1)C(=O)N[C@@H](CC(N)=O)C(=O)N[C@@H](CC(C)C)C(=O)NCC(=O)N[C@@H](CCCCN)C(=O)N[C@@H](Cc1c[nH]cn1)C(=O)N[C@@H](CC(C)C)C(=O)N[C@@H](CC(N)=O)C(=O)N[C@@H](CO)C(=O)N[C@@H](CCSC)C(=O)N[C@@H](CCC(=O)O)C(=O)N[C@@H](CCCNC(=N)N)C(=O)N[C@H](C(=O)N[C@@H](CCC(=O)O)C(=O)N[C@@H](Cc1c[nH]c2ccccc12)C(=O)N[C@@H](CC(C)C)C(=O)N[C@@H](CCCNC(=N)N)C(=O)N[C@@H](CCCCN)C(=O)N[C@@H](CCCCN)C(=O)N[C@@H](CC(C)C)C(=O)N[C@@H](CCC(N)=O)C(=O)N[C@@H](CC(=O)O)C(=O)N[C@H](C(=O)N[C@@H](Cc1c[nH]cn1)C(=O)N[C@@H](CC(N)=O)C(=O)N[C@@H](Cc1ccccc1)C(=O)N[C@H](C(=O)N[C@@H](C)C(=O)N[C@@H](CC(C)C)C(=O)NCC(=O)O)C(C)C)C(C)C)C(C)C [PTH Peptide, reference compound]
Distal-Femur (% BMD change): 16%
Lumbar Vertebra (% BMC change): 1%
